# Patent publication US10758534B2 (Vertex Pharmaceuticals Incorporated, priority 2014, dated 2020)
# Target: T1, F508del (Homo sapiens, UniProt P13569, DEL508-508)
# T1 construct: expressed in transfected cells
# Assay: Protocol 2: FRET membrane potential optical assay (VIPR), identification of correction compounds
# Type: cell-based
# Conditions: F508del CFTR modulator activity; compounds of Table 1; read-out: EC30
# Procedure, shortened: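 Corrector readout: membrane-potential FRET (CC2-DMPE donor, DiSBAC2(3) acceptor) on VIPR II after Cl⁻-free gluconate bath with 10 μM forskolin and 20 μM genistein. Before this, F508del-expressing NIH3T3 cells were exposed to test compound for 16 h at 37 °C without serum; 27 °C incubation served as temperature-correction control.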
# T1 sequence (P13569 with tags, fused parts or gaps DEL508-508): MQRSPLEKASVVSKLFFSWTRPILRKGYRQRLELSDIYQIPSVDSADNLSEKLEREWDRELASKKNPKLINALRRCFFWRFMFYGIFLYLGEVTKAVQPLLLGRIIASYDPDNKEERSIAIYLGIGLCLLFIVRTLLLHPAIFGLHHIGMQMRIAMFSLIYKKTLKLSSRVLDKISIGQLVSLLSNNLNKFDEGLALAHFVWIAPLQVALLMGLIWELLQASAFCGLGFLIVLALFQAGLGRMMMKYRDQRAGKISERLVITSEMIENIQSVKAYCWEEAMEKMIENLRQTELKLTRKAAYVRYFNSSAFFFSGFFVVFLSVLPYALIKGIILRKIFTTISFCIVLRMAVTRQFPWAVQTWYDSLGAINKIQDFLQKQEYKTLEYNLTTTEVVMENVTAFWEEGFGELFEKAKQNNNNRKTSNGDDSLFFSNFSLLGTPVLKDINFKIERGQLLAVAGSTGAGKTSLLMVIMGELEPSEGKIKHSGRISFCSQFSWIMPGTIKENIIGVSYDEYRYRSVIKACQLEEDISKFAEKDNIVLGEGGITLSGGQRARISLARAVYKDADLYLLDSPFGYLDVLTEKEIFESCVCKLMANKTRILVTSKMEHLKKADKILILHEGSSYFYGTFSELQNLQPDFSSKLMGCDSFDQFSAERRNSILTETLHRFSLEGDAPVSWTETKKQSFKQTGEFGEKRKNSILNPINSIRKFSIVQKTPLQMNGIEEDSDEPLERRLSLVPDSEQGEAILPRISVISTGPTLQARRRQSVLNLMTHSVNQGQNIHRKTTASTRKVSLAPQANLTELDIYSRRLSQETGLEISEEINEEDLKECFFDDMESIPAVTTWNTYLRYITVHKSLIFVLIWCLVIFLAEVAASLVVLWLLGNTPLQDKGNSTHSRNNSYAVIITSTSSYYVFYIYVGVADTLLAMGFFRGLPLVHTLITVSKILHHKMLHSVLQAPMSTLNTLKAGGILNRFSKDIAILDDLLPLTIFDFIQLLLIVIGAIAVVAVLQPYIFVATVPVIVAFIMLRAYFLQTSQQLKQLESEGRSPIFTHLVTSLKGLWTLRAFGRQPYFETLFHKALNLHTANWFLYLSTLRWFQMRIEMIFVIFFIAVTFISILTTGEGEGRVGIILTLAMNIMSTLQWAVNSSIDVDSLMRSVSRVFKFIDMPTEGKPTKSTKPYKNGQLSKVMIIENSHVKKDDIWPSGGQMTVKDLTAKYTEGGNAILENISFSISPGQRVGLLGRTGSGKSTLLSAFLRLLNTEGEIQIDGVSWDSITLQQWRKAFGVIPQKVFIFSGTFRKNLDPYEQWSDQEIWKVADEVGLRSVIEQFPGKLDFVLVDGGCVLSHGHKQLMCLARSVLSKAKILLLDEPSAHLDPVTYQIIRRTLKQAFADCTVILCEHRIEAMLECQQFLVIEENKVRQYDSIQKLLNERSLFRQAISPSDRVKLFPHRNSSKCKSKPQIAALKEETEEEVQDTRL
row,SMILES,EC30 [µM]
1,"COc1cc(-c2ccc(C(=O)NS(=O)(=O)c3cccnc3N)c(N3C[C@@H](C)CC3(C)C)n2)ccc1C [Compound 2379, N-[(2-amino-3-pyridyl)sulfonyl]-6-(3-methoxy-4-methyl-phenyl)-2-[(4S)-2,2,4-trimethylpyrrolidin-1-yl]pyridine-3-carboxamide]",< 3
2,"COc1c(C)cccc1-c1ccc(C(=O)NS(=O)(=O)c2cccnc2N)c(N2C[C@@H](C)CC2(C)C)n1 [Compound 2380, N-[(2-amino-3-pyridyl)sulfonyl]-6-(2-methoxy-3-methyl-phenyl)-2-[(4S)-2,2,4-trimethylpyrrolidin-1-yl]pyridine-3-carboxamide]",< 3
3,"CC1CN(c2ncccc2C(=O)NS(=O)(=O)c2cccc(Nc3cccc(C(F)(F)F)c3)n2)C(C)(C)C1 (stereo not drawn) [Compound 2381, N—[[6-[3-(trifluoromethyl)anilino]-2-pyridyl]sulfonyl]-2-(2,2,4-trimethylpyrrolidin-1-yl)pyridine-3-carboxamide]",< 3
4,"CC1CN(c2ncccc2C(=O)NS(=O)(=O)c2cccc(N3CCCc4ccccc43)n2)C(C)(C)C1 (stereo not drawn) [Compound 2382, N—[[6-(3,4-dihydro-2H-quinolin-1-yl)-2-pyridyl]sulfonyl]-2-(2,2,4-trimethylpyrrolidin-1-yl)pyridine-3-carboxamide]",< 3
5,"CC1CN(c2ncccc2C(=O)NS(=O)(=O)c2cccc(N3CCC(CCN(C)C)CC3)n2)C(C)(C)C1 (stereo not drawn) [Compound 2383, N—[[6-[4-(2-dimethylaminoethyl)-1-piperidyl]-2-pyridyl]sulfonyl]-2-(2,2,4-trimethylpyrrolidin-1-yl)pyridine-3-carboxamide]",3 to 10
6,"CCOc1ccc(-c2cnc(N3CC(C)CC3(C)C)c(C(=O)NS(=O)(=O)c3cccc(N)n3)c2)cn1 (stereo not drawn) [Compound 2384, N-[(6-amino-2-pyridyl)sulfonyl]-5-(6-ethoxy-3-pyridyl)-2-(2,2,4-trimethylpyrrolidin-1-yl)pyridine-3-carboxamide]",< 3
7,"CC1CN(c2ncccc2C(=O)NS(=O)(=O)c2cccc(N3CCc4cc(Cl)ccc43)n2)C(C)(C)C1 (stereo not drawn) [Compound 2385, N—[[6-(5-chloroindolin-1-yl)-2-pyridyl]sulfonyl]-2-(2,2,4-trimethylpyrrolidin-1-yl)pyridine-3-carboxamide]",< 3
8,"C[C@@H]1CN(c2nc(-c3cccc(F)c3O)ccc2C(=O)NS(=O)(=O)c2cccc(N)n2)C(C)(C)C1 [Compound 2386, N-[(6-amino-2-pyridyl)sulfonyl]-6-(3-fluoro-2-hydroxy-phenyl)-2-[(4S)-2,2,4-trimethylpyrrolidin-1-yl]pyridine-3-carboxamide]",< 3
9,"CC(=O)Nc1cccc(Nc2cccc(S(=O)(=O)NC(=O)c3cccnc3N3CC(C)CC3(C)C)n2)c1 (stereo not drawn) [Compound 2387, N—[[6-(3-acetamidoanilino)-2-pyridyl]sulfonyl]-2-(2,2,4-trimethylpyrrolidin-1-yl)pyridine-3-carboxamide]",3 to 10
10,"COc1cc(F)c(-c2ccc(C(=O)NS(=O)(=O)c3cccnc3N)c(N3C[C@@H](C)CC3(C)C)n2)cc1F [Compound 2388, N-[(2-amino-3-pyridyl)sulfonyl]-6-(2,5-difluoro-4-methoxy-phenyl)-2-[(4S)-2,2,4-trimethylpyrrolidin-1-yl]pyridine-3-carboxamide]",< 3
11,"CC1CN(c2ncccc2C(=O)NS(=O)(=O)c2cccc(Nc3ccc4[nH]ncc4c3)n2)C(C)(C)C1 (stereo not drawn) [Compound 2389, N—[[6-(1H-indazol-5-ylamino)-2-pyridyl]sulfonyl]-2-(2,2,4-trimethylpyrrolidin-1-yl)pyridine-3-carboxamide]",3 to 10
12,"CC1CN(c2ncccc2C(=O)NS(=O)(=O)c2cccc(OCc3c(Cl)cccc3Cl)n2)C(C)(C)C1 (stereo not drawn) [Compound 2390, N—[[6-[(2,6-dichlorophenyl)methoxy]-2-pyridyl]sulfonyl]-2-(2,2,4-trimethylpyrrolidin-1-yl)pyridine-3-carboxamide]",< 3
13,"Cc1cccc(CNc2cccc(S(=O)(=O)NC(=O)c3cccnc3N3CC(C)CC3(C)C)n2)c1 (stereo not drawn) [Compound 2391, N—[[6-(m-tolylmethylamino)-2-pyridyl]sulfonyl]-2-(2,2,4-trimethylpyrrolidin-1-yl)pyridine-3-carboxamide]",< 3
14,"C[C@@H]1CN(c2nc(-c3cccc(C(F)(F)F)c3)ccc2C(=O)NS(=O)(=O)c2cccc(N)n2)C(C)(C)C1 [Compound 2392, N-[(6-amino-2-pyridyl)sulfonyl]-6-[3-(trifluoromethyl)phenyl]-2-[(4S)-2,2,4-trimethylpyrrolidin-1-yl]pyridine-3-carboxamide]",< 3
15,"CC1CN(c2ncccc2C(=O)NS(=O)(=O)c2cccc(N3CC[C@H](F)C3)n2)C(C)(C)C1 (stereo partly drawn) [Compound 2393, N—[[6-[(3S)-3-fluoropyrrolidin-1-yl]-2-pyridyl]sulfonyl]-2-(2,2,4-trimethylpyrrolidin-1-yl)pyridine-3-carboxamide]",3 to 10
16,"Cc1ccc(F)cc1-c1ccc(C(=O)NS(=O)(=O)c2cccc(N)n2)c(N2C[C@@H](C)CC2(C)C)n1 [Compound 2394, N-[(6-amino-2-pyridyl)sulfonyl]-6-(5-fluoro-2-methyl-phenyl)-2-[(4S)-2,2,4-trimethylpyrrolidin-1-yl]pyridine-3-carboxamide]",< 3
17,"CC(C)Cc1ccc(-c2cnc(N3CC(C)CC3(C)C)c(C(=O)NS(=O)(=O)c3cccc(N)n3)c2)cc1 (stereo not drawn) [Compound 2395, N-[(6-amino-2-pyridyl)sulfonyl]-5-(4-isobutylphenyl)-2-(2,2,4-trimethylpyrrolidin-1-yl)pyridine-3-carboxamide]",< 3
18,"CC1CN(c2ncccc2C(=O)NS(=O)(=O)c2cccc(OCC3CCOC3)n2)C(C)(C)C1 (stereo not drawn) [Compound 2396, N—[[6-(tetrahydrofuran-3-ylmethoxy)-2-pyridyl]sulfonyl]-2-(2,2,4-trimethylpyrrolidin-1-yl)pyridine-3-carboxamide]",3 to 10
19,"CC1CN(c2ncccc2C(=O)NS(=O)(=O)c2cccc(Nc3ccccc3C(F)(F)F)n2)C(C)(C)C1 (stereo not drawn) [Compound 2397, N—[[6-[2-(trifluoromethyl)anilino]-2-pyridyl]sulfonyl]-2-(2,2,4-trimethylpyrrolidin-1-yl)pyridine-3-carboxamide]",< 3
20,"CC(C)COc1cc(F)cc(-c2ccc(C(=O)NS(=O)(=O)N3CC(C)(O)C3)c(N3C[C@@H](C)CC3(C)C)n2)c1 [Compound 2398, 6-(3-fluoro-5-isobutoxy-phenyl)-N-(3-hydroxy-3-methyl-azetidin-1-yl)sulfonyl-2-[(4S)-2,2,4-trimethylpyrrolidin-1-yl]pyridine-3-carboxamide]",< 3
21,"CC1CN(c2ncc(-c3ccc(Cl)cc3)cc2C(=O)NS(=O)(=O)c2cccc(N)n2)C(C)(C)C1 (stereo not drawn) [Compound 2399, N-[(6-amino-2-pyridyl)sulfonyl]-5-(4-chlorophenyl)-2-(2,2,4-trimethylpyrrolidin-1-yl)pyridine-3-carboxamide]",< 3
22,"CC1CN(c2ncccc2C(=O)NS(=O)(=O)c2cccc(NCCN(C)C(=O)OC(C)(C)C)n2)C(C)(C)C1 (stereo not drawn) [Compound 2400, tert-butyl N-methyl-N—[2-[[6-[[2-(2,2,4-trimethylpyrrolidin-1-yl)pyridine-3-carbonyl]sulfamoyl]-2-pyridyl]amino]ethyl]carbamate]",3 to 10
23,"C[C@@H]1CN(c2nc(-c3ccc4ccn(C)c4c3)ccc2C(=O)NS(=O)(=O)c2cccnc2N)C(C)(C)C1 [Compound 2401, N-[(2-amino-3-pyridyl)sulfonyl]-6-(I-methylindol-6-yl)-2-[(4S)-2,2,4-trimethylpyrrolidin-1-yl]pyridine-3-carboxamide]",< 3
24,"CC1CN(c2ncccc2C(=O)NS(=O)(=O)c2cccc(OCc3ccc(Cl)c(Cl)c3)n2)C(C)(C)C1 (stereo not drawn) [Compound 2402, N—[[6-[(3,4-dichlorophenyl)methoxy]-2-pyridyl]sulfonyl]-2-(2,2,4-trimethylpyrrolidin-1-yl)pyridine-3-carboxamide]",< 3
25,"CCOc1ccc(-c2ccc(C(=O)NS(=O)(=O)c3cccnc3N)c(N3C[C@@H](C)CC3(C)C)n2)cc1F [Compound 2403, N-[(2-amino-3-pyridyl)sulfonyl]-6-(4-ethoxy-3-fluoro-phenyl)-2-[(4S)-2,2,4-trimethylpyrrolidin-1-yl]pyridine-3-carboxamide]",< 3
26,"CCOCCOc1ncc(-c2ccc(C(=O)NS(=O)(=O)c3cccc(N)n3)c(N3C[C@@H](C)CC3(C)C)n2)cc1C [Compound 2404, N-[(6-amino-2-pyridyl)sulfonyl]-6-[6-(2-ethoxyethoxy)-5-methyl-3-pyridyl]-2-[(4S)-2,2,4-trimethylpyrrolidin-1-yl]pyridine-3-carboxamide]",< 3
27,"C[C@@H]1CN(c2nc3ccccc3cc2C(=O)NS(=O)(=O)c2ccc[nH]c2=O)C(C)(C)C1 [Compound 2405, N-[(2-oxo-1H-pyridin-3-yl)sulfonyl]-2-[(4S)-2,2,4-trimethylpyrrolidin-1-yl]quinoline-3-carboxamide]",< 3
28,"C[C@@H]1CN(c2nc(-n3cc(OCC(C)(C)C)cn3)ccc2C(=O)NS(=O)(=O)c2cccnc2N)C(C)(C)C1 [Compound 2406, N-[(2-amino-3-pyridyl)sulfonyl]-6-[4-(2,2-dimethylpropoxy)pyrazol-1-yl]-2-[(4S)-2,2,4-trimethylpyrrolidin-1-yl]pyridine-3-carboxamide]",< 3
29,"CC1CN(c2ncccc2C(=O)NS(=O)(=O)c2cccc(NC3CCN(Cc4ccccc4)C3)n2)C(C)(C)C1 (stereo not drawn) [Compound 2407, N—[[6-[(1-benzylpyrrolidin-3-yl)amino]-2-pyridyl]sulfonyl]-2-(2,2,4-trimethylpyrrolidin-1-yl)pyridine-3-carboxamide]",3 to 10
30,"CC1CN(c2ncccc2C(=O)NS(=O)(=O)c2cccc(OC(C)c3ccccc3F)n2)C(C)(C)C1 (stereo not drawn) [Compound 2408, N—[[6-[1-(2-fluorophenyl)ethoxy]-2-pyridyl]sulfonyl]-2-(2,2,4-trimethylpyrrolidin-1-yl)pyridine-3-carboxamide]",< 3
